Results from patent US20160045463A1, “USE OF METALLOPROTEASE INHIBITORS IN THE TREATMENT OF POLYCYSTIC LIVER DISEASES” (UNIVERSIDAD DE SALAMANCA, priority 2012, published 2016).

Assays:
[1] = 0.2856 mg/kg/day; patients with colorectal cancer; cited from earlier work
normal rats = experiment: Normal rats treated with Marimastat orally for 1 week; assay type: in vivo, rat; details: oral, same dose
Method: The various biochemical and histological markers listed above were also analysed. […] There were also no changes in the mean body weight of the animals.

[2] = tested on: normal human cholangiocytes; experiment: Metalloproteolytic activity of culture supernatants, ES001 fluorogenic peptide cleavage; assay type: cell-based; details: normal cholangiocytes; 13-cis-retinoic acid 10 μM/ml or Marimastat 200 μM/ml; p<0.01; FIG. 21
Method: (§1) Metalloproteolytic or metalloprotease activity was measured in supernatants of cultures of normal human cholangiocytes and polycystic human cholangiocytes by an assay based on the cleavage of the ES001 fluorogenic synthetic peptide (R&D Systems Minneapolis, Minn., USA) that emits fluorescence proportional to metalloproteolytic activity. The substrate Mca-Pro-Leu-Gly-Leu-Dpa-Ala-Arg-NH2 [Mca: (7-Methoxycoumarin-4-yl)acetyl, Dpa: N-3-(2,4-Dinitrophenyl)-L-2,3-diaminopropionyl] (Knight C G, et al. FEBS Letters 1992; 296:263) is lysed between glycine and leucine by the action of the MMPs, especially MMP-1 (collagenase 1), MMP-2 (gelatinase A), MMP-7 (matrilysin), MMP-8 (collagenase 2), MMP-9 (gelatinase B), MMP-12 (macrophage elastase), MMP-13 (collagenase 3), MMP-14 (MT1-MMP), MMP-15 (MT2-MMP) and MMP-16 (MT3-MMP).
(§2) The basal metalloproteolytic activity of normal human cholangiocyte and polycystic human cholangiocytes cultures was determined by trypsinising the contents of 250 ml flasks and counting the number of cells in an inverted optical microscope using a Neubauer camera and a ½ dilution of the cell solution with trypan blue (Sigma). Next, 300,000 cells were seeded in each well of a 6-well plate and incubated with enriched DMEM/F-12 medium for 24 hours. After this time, the cells were washed with PBS and the culture medium changed for 2 ml of quiescent medium (DMEM/F-12, 1% FBS and 1% P/S) and incubated for 6 hours at 37° C./5% CO2. The supernatant was collected from each well and centrifuged at 4° C. for 10 minutes at 1,500 rpm to remove the dead cells present in the supernatant. The supernatant was concentrated 50 times using a 15 kDa (Millipore) Amicon Ultra concentrator. Next the concentrated supernatant was incubated for 2 hours at 37° C. with the ES001 fluorogenic peptide at a final concentration of 10 μM. Also, GM6001 (a global MMP inhibitor) and aprotinin (a global inhibitor of serine proteases) (both from Sigma-Aldrich) were used as controls of the specificity of the analysis of MMP activity in the assay. Recombinant MMP-10 (kindly provided by Dr. José Antonio Rodriguez Garcia, Laboratorio de Ateroesclerosis e Inflamación del CIMA, Universidad de Navarra) was used as a positive control and DMEM/F-12 medium without serum was used as the negative control. The fluorescence determination was kinetically measured in a Spectra MAX GeminiXS (Molecular Devices Sunnyvale, Calif., USA) spectrophotometer at excitation-emission wavelengths of 320-405 nm. The fluorescence intensity emitted by the culture medium was extracted from the metalloproteolytic activity values. The metalloproteolytic activity was calculated from the tangent to the curve of the fluorescence values using at least six different points over time for each type of cell and condition.
(§3) To analyse the effect of various stimuli on the metalloproteolytic activity of normal and polycystic human cholangiocytes cultures, a protocol similar to that described before in Example 2 was followed, but in this case the incubation of the cells was with quiescent medium (i.e. DMEM/F12, […]) in the presence of the corresponding stimulus (Table 3). Next, the same procedure as described for the analysis of basal metalloproteolytic activity was followed as described in Example 2.
(§4) Taking into account that: i) basal activity of polycystic human cholangiocytes in culture is greater than that of normal human cholangiocytes and ii) that IL-6 and IL-8 increased the metalloproteolytic activity of normal and polycystic human cholangiocytes, the role of these two cytokines on metalloproteolytic hyperactivity of polycystic human cholangiocytes using antibodies against the receptors of IL-6 (IL6R) and/or IL-8 (CXCR1) was investigated. […]

[3] = tested on: polycystic human cholangiocytes; experiment: as above; assay type: cell-based; details: polycystic cholangiocytes; 13-cis-retinoic acid 10 μM/ml or Marimastat 200 μM/ml; p<0.01; FIG. 21
Method: as §1, §2, §3, §4

histology of the liver or the kidney (normal rats): did not affect
serum levels of biochemical markers (normal rats): did not affect
SMILES: CNC(=O)[C@@H](NC(=O)[C@H](CC(C)C)[C@H](O)C(=O)NO)C(C)(C)C [Marimastat, N-[2,2-dimethyl-1-(methylcarbamoyl)propyl]-2-[hydroxy-(hydroxycarbamoyl)methyl]-4-methyl-pentanamide]
toxicity at dose used in clinical trials [1]: does not cause toxicity
mean body weight of the animals (normal rats): no changes
basal metalloproteolytic activity in presence of inhibitor [2]: inhibited
basal metalloproteolytic activity in presence of inhibitor [3]: inhibited
